From patent US20160129122A1, “FATTY ACID ANTIVIRAL CONJUGATES AND THEIR USES” (Catabasis Pharmaceuticals, Inc., priority 2011, published 2016) come the findings set out here.

Read-outs that look alike come from different tables or passages of the source. A value given as a limit tells only on which side of the number the result lay.

In experiment [1] the test system is NF-κB. The experiment is described as follows: NF-κB luciferase reporter assay in LPS-stimulated RAW 264.7 macrophages. The format is cell-based. The settings on record: Mus musculus. The protocol:
RAW 264.7 cells stably expressing a 3×NFkB response element-drive luciferase reporter were seeded into 96 well plates in sera-free medium (Optimem) 18 hours prior to compound application. Compounds of the invention were prepared by first making 100 mM stock solutions in EtOH. […] Cells were then stimulated with 200 ng/ml LPS or vehicle control for 3 hours in the presence of the compounds of the invention. A set of six vehicles was left unstimulated with LPS in order to measure the assay floor. AlamarBlue viability dye (Invitrogen) was added to cells simultaneously with the delivery of LPS (final AlamarBlue concentration of 10%). After the 3 h incubation period with LPS, cell viability was measured by reading fluorescence (excitation 550 nm, emission 595 nm) with a Perkin Elmer Victor V plate reader. Then cell media was aspirated from each well. Luciferase signal was then developed by addition of the Britelite Plus reagent (Perkin Elmer). Luciferase activity was measured with the Perkin Elmer Victor V plate reader. NF-κB activity was expressed as a percent of the vehicle control wells (stimulated with LPS). Compounds were tested at 6 dose point titrations in triplicate to determine IC50 values.
A general note: In a reporter assay the amount or activity of a reporter protein is the signal.

The subject of experiment [2] is HIV-1IIIB strain. The experiment is described as follows: HIV-1 cytoprotection assay (CEM-SS cells, MTS dye reduction). The format is cell-based. (Formazan colour is commonly taken as a measure of viable cells.)
Where [3] appears, read: RAW264.7, read-out: NF-kB inhibitory activity IC50 μM.
The mark [4] stands for this setting: Human immunodeficiency virus 1, IIIB, CEM-SS, 144 h, read-out: IC50 HIV-1IIIB strain (nM).
The mark [5] stands for this setting: RAW264.7, RAW 264.7 cells with 3×NFkB response element luciferase reporter, 2 h pretreatment, 200 ng/ml LPS for 3 h, read-out: NF-kB inhibitory activity IC50.
The mark [6] stands for this setting: Human immunodeficiency virus 1, 144 h, CEM-SS cells, HIV-1 IIIB strain, 6 days incubation, cytoprotection by MTS, read-out: IC50 HIV-1IIIB strain.

Regarding `CC(C)CN(C[C@@H](O)[C@H](Cc1ccccc1)NC(=O)O[C@H]1CO[C@H]2OCC[C@H]21)S(=O)(=O)c1ccc(N)cc1` [Darunavir, darunavir, reference compound], the IC50 in experiment [1] (setting [3]) was > 200 µM.
Turning to `CC/C=C\C/C=C\C/C=C\C/C=C\C/C=C\CCCC(=O)NCCNP(=O)(OC)OC[C@H]1OC(n2cc(C)c(=O)[nH]c2=O)C[C@@H]1N=[N+]=[N-]` (stereo partly shown) [II-30], the IC50 in experiment [2] (setting [4]) is > 100 nM; in experiment [1] (setting [3]) it was < 50 µM.
For `CC/C=C\C/C=C\C/C=C\C/C=C\C/C=C\C/C=C\CCC(=O)NCCNP(=O)(OC[C@H]1OC(n2cc(C)c(=O)[nH]c2=O)C[C@@H]1N=[N+]=[N-])Oc1ccccc1` (stereo partly shown) [II-25], in that order: < 100 nM and < 50 µM.
In the case of `CC/C=C\C/C=C\C/C=C\C/C=C\C/C=C\C/C=C\CCC(=O)NCCOCCNC(=O)OC[C@H]1OC(n2cc(C)c(=O)[nH]c2=O)C[C@@H]1N=[N+]=[N-]` (stereo partly shown) [Compound V-8], the IC50 in experiment [1] (setting [5]) lay in the range of 50 to 200 µM.
Take `CC/C=C\C/C=C\C/C=C\C/C=C\C/C=C\C/C=C\CCC(=O)Nc1ccn(C2CS[C@H](CO)O2)c(=O)n1` (stereo partly shown) [Compound V-18]: the values for the half-inhibitory concentration (IC50) in experiment [2] (setting [6]) and in experiment [1] (setting [5]) were < 100 nM and > 200 µM, respectively.
Turning to `CC/C=C\C/C=C\C/C=C\C/C=C\C/C=C\C/C=C\CCC(=O)NCCNP(=O)(OC[C@@H]1O[C@H](n2ccc(N)nc2=O)CS1)Oc1ccccc1` (stereo partly drawn) [II-67, ((2R,5S)-5-(4-amino-2-oxopyrimidin-1(2H)-yl)-1,3-oxathiolan-2-yl)methyl phenyl (2-((4Z,7Z,10Z,13Z,16Z,19Z)-docosa-4,7,10,13,16,19-hexaenamido)ethyl)phosphoramidate], the concentration for half-maximal inhibition (IC50) was < 100 nM in experiment [2] (setting [4]) and < 50 µM in experiment [1] (setting [3]).
For `CC/C=C\C/C=C\C/C=C\C/C=C\C/C=C\CCCC(=O)NCCNP(=O)(OC)OC[C@@H]1O[C@H](n2ccc(N)nc2=O)CS1` (stereo partly drawn) [II-70, ((2R,5S)-5-(4-amino-2-oxopyrimidin-1(2H)-yl)-1,3-oxathiolan-2-yl)methyl methyl (2-((5Z,8Z,11Z,14Z,17Z)-icosa-5,8,11,14,17-pentaenamido)ethyl)phosphoramidate], the IC50 in experiment [1] (setting [3]) was 50 to 200 µM.
As to `CC/C=C\C/C=C\C/C=C\C/C=C\C/C=C\C/C=C\CCC(=O)NCCNC(=O)OC[C@@H]1OC(n2ccc(N)nc2=O)CS1` (stereo partly drawn) [Compound V-21, ((2R,5S)-5-(4-amino-2-oxopyrimidin-1(2H)-yl)-1,3-oxathiolan-2-yl)methyl(2-((4Z,7Z,10Z,13Z,16Z,19Z)-docosa-4,7,10,13,16,19-hexaenamido)ethyl)carbamate], the IC50 in experiment [2] (setting [4]) is < 100 nM; in experiment [1] (setting [3]), 50 to 200 µM.
In the case of `CC/C=C\C/C=C\C/C=C\C/C=C\C/C=C\C/C=C\CCC(=O)NCCNC(=O)OC[C@H]1OC(n2cc(C)c(=O)[nH]c2=O)C[C@@H]1N=[N+]=[N-]` (stereo partly shown) [Compound V-5], the results for the IC50 in experiment [2] (setting [6]) and in experiment [1] (setting [5]) were > 100 nM and < 50 µM, respectively.
Consider `CC/C=C\C/C=C\C/C=C\C/C=C\C/C=C\CCCC(=O)Nc1ccc(S(=O)(=O)N(CC(C)C)C[C@@H](O)[C@H](Cc2ccccc2)NC(=O)O[C@H]2CO[C@H]3OCC[C@H]32)cc1` [VII-2, (3R,3aS,6aR)-hexahydrofuro[2,3-b]furan-3-yl((2S,3R)-3-hydroxy-4-(4-((5Z,8Z,11Z,14Z,17Z)-icosa-5,8,11,14,17-pentaenamido)-N-isobutylphenylsulfonamido)-1-phenylbutan-2-yl)carbamate], for which the IC50 in experiment [2] (setting [6]) was < 100 nM.
`CC/C=C\C/C=C\C/C=C\C/C=C\C/C=C\C/C=C\CCC(=O)Nc1ccc(S(=O)(=O)N(CC(C)C)C[C@@H](O)[C@H](Cc2ccccc2)NC(=O)O[C@H]2CO[C@H]3OCC[C@H]32)cc1` [VII-1, (3R,3aS,6aR)-hexahydrofuro[2,3-b]furan-3-yl((2S,3R)-4-(4-((4Z,7Z,10Z,13Z,16Z,19Z)-docosa-4,7,10,13,16,19-hexaenamido)-N-isobutylphenylsulfonamido)-3-hydroxy-1-phenylbutan-2-yl)carbamate]: the IC50 is < 100 nM in experiment [2] (setting [4]) and 50 to 200 µM in experiment [1] (setting [3]).
On to `C=C1[C@H](COP(=O)(NCCNC(=O)CCC/C=C\C/C=C\C/C=C\C/C=C\C/C=C\CC)OC)[C@@H](O)C[C@@H]1n1cnc2c(=O)nc(N)[nH]c21` (stereo partly drawn) [II-48, ((1R,3S,5S)-3-(2-amino-6-oxo-3H-purin-9(6H)-yl)-5-hydroxy-2-methylenecyclopentyl)methyl methyl (2-((5Z,8Z,11Z,14Z,17Z)-icosa-5,8,11,14,17-pentaenamido)ethyl)phosphoramidate], for which the IC50 in experiment [1] (setting [3]) was in the range of 50 to 200 µM.

For orientation: IC50 means the concentration at which inhibition is half-maximal.
